Assay results: US20230390297A1, “USE OF NUCLEOTIDE SYNTHESIS INHIBITORS FOR TARGETED THERAPY IN MLL3/4 COMPASS MUTANT CANCER” (priority 2022, published 2023)

Legend:
MLL3/4 ΔSET cells = assay: CellTiter-Glo viability assay in WT, MLL3/4 ΔSET and MLL3/4 KO cells; format: cell-based, mouse; conditions: 0-2.5 μM LTX, 72 hours
Source text: FIG. 11. […] (A) Western blot showing MLL4, MLL3, NCOA6, UTX, RbBP5 and ASH2L protein levels in WT, MLL3/4 ASET and MLL3/4 KO cells with Hsp90 as the loading control. Bulk levels of histone H3K4me1, H3K4me2, H3K4me3 and H3K27Ac were also shown. N, N-terminus; C, C-terminus. mESCs harboring deletion of the SET domains of both MLL3 and MLL4 (referred to as MLL3/4 ΔSET) were generated in our previous studies (20). (B) Western blot showing nuclear and cytoplasmic MLL4, UTX, NCOA6 and RBBP5 protein levels after cell fractionation, with MLL1 and Hsp90 serving as nuclear and cytoplasmic loading control. (C) WT, MLL3/4 ΔSET and MLL3/4 KO cells were treated with 0-2.5 μM lometrexol (LTX) for 72 hours. CellTiter-Glo® luminescent cell viability assay was performed to determine the percentage of inhibition.

HT55 (MLL4 WT) xenograft = assay: HT55 subcutaneous xenograft in nude mice; format: in vivo
Protocol: FIG. 20. Lometrexol application in MLL4 mutant tumors in the xenograft mouse models. (A-D) Tumor development after inoculation of 4×10^6 of HT55 cells into the nude mice. Mice with HT55 subcutaneous (sc) tumor were either treated with vehicle (DMSO, n=9) or LTX (15 mg/kg, n=9) daily for 7 days. (A) Growth plots for sc tumors in each treatment group were shown. Tumor volumes (mm3) show mean and upper SD. (B) Dot plot representation of sc tumor volume in mice at day 18 post-tumor cell injection. […] (C) Photographs of nude mice (upper) and sc tumor taken from these mice (lower) in which HT55 cells were inoculated into the right flank. (D) Animal survival at the indicated days after inoculation. Log-rank test was used for comparisons between DMSO and LTX treatment. (E-H) Tumor development after inoculation of 4×10^6 of HCT116 cells into the nude mice. […]
Six-week-old female athymic mice (nu/nu genotype, BALB/c background) were purchased from Envigo (Indianapolis, IN, USA) and housed under aseptic conditions. […] The tumor sizes were measured on alternate days and the mice were euthanized when the tumor size reached 1000 mm^3. […]
(§1) For in vivo study, the Kaplan-Meier estimator and Prism software were used to generate and analyze survival plots. Differences between survival plots were calculated using a log-rank test. […]

Mll3/4 KO mESCs = assay: CellTiter-Glo luminescent cell viability assay in WT and Mll3/4 KO mESCs; format: cell-based, mouse; conditions: 48 hours
Protocol: FIG. 3. […] (A) WT and Mll3/4 KO cells were treated with 0-2.5 μM lometrexol (LTX)−/+50 hypoxanthine (HPX) for 48 hours. CellTiter-Glo® luminescent cell viability assay was performed to determine the percentage of inhibition under these conditions. (B) WT and KO cells were treated with 0.3 μM LTX−/+50 μM HPX for 48 hours, and cells were harvested for RNA-seq. Differential gene expression analyses were performed with indicated comparisons. (C) Principal component analysis of RNA-seq in (B). (D) Hierarchical clustering heatmap showing differentially expressed genes in KO cells in comparison with WT cells.
FIG. 10. Mll3/4 KO mESCs are more sensitive to purine synthesis inhibition. (A-B) WT and Mll3/4 KO cells were treated with 0-2.5 μM lometrexol (LTX) (A) or 0-5 methotrexate (MTX) (B) for 48 hours. CellTiter-Glo® luminescent cell viability assay was performed to determine the percentage of inhibition under these conditions with three different Mll3/4 KO clones included. (C) WT and Mll3/4 KO cells were treated with 0-40 μM SHIINI for 48 hours. MTT cell viability assay was performed to determine the percentage of inhibition under these conditions with three different Mll3/4 KO clones included.

[1] = tested on: HCT116 sc xenografts (MLL4 mutant); assay: HCT116 subcutaneous xenograft in nude mice; format: in vivo
Protocol: FIG. 6. Inhibition of de novo purine synthesis by lometrexol inhibits MLL4 mutant tumor growth. Tumor development after inoculation of 4×10^6 of HCT116 cells into the nude mice. Mice with HCT116 subcutaneous (sc) tumor were either treated with vehicle (DMSO, n=9) or LTX (25 mg/kg, n=9) daily for 7 days. (A) Growth plots for sc tumors in each treatment group were shown. Tumor volumes (mm3) show mean and upper SD. (B) Dot plot representation of sc tumor volume in mice at day 12 post-tumor cell injection. Unpaired t-test values for comparisons between DMSO and LTX treatment: ****, P<0.0001. (C) Photographs of nude mice (left) and sc tumor taken from these mice (right) in which HCT116 cells were inoculated into the right flank. (D) Animal survival at the indicated days after inoculation. Log-rank test was used for comparisons between DMSO and LTX treatment: ****, P<0.0001. (E) H&E staining and immunohistochemistry showing the proliferation and apoptosis in tumors with Ki-67 and TUNEL staining. The signals for Ki-67 and TUNEL are quantified and shown in the bar plots on the right.
FIG. 20. Lometrexol application in MLL4 mutant tumors in the xenograft mouse models. (A-D) Tumor development after inoculation of 4×10^6 of HT55 cells into the nude mice. Mice with HT55 subcutaneous (sc) tumor were either treated with vehicle (DMSO, n=9) or LTX (15 mg/kg, n=9) daily for 7 days. (A) Growth plots for sc tumors in each treatment group were shown. Tumor volumes (mm3) show mean and upper SD. (B) Dot plot representation of sc tumor volume in mice at day 18 post-tumor cell injection. […] (C) Photographs of nude mice (upper) and sc tumor taken from these mice (lower) in which HT55 cells were inoculated into the right flank. (D) Animal survival at the indicated days after inoculation. Log-rank test was used for comparisons between DMSO and LTX treatment. (E-H) Tumor development after inoculation of 4×10^6 of HCT116 cells into the nude mice. Mice with HCT116 subcutaneous (sc) tumor were either treated with vehicle (DMSO, n=9) or LTX (15 mg/kg, n=9) daily for 7 days. (E) Growth plots for sc tumors in each treatment group were shown. Tumor volumes (mm3) show mean and upper SD. (F) Dot plot representation of sc tumor volume in mice at day 12 post-tumor cell injection. Unpaired t-test values for comparisons between DMSO and LTX treatment: ***, P<0.001. (G) Photographs of nude mice (upper) and sc tumor taken from these mice (lower) in which HCT116 cells were inoculated into the right flank. (H) Animal survival at the indicated days after inoculation. Log-rank test was used for comparisons between DMSO and LTX treatment: ***, P<0.001.
Six-week-old female athymic mice (nu/nu genotype, BALB/c background) were purchased from Envigo (Indianapolis, IN, USA) and housed under aseptic conditions. HT55 or HCT116 cells were implanted into the flank of athymic mice as previously described (65). Briefly, 4×10^6 cells, in 0.4 ml of cell culture media with matrigel (BD Bioscience) at 1:1 ratio, were injected in the right flank of mice under anesthetization by isoflurane. […] The tumor sizes were measured on alternate days and the mice were euthanized when the tumor size reached 1000 mm^3. […]
as §1

[2] = LTX 25 mg/kg daily for 7 days vs DMSO

SMILES: Nc1nc2c(c(=O)[nH]1)C[C@@H](CCc1ccc(C(=O)N[C@@H](CCC(=O)O)C(=O)O)cc1)CN2 [lometrexol, (2S)-2-[[4-[2-[(6R)-2-amino-4-oxo-5,6,7,8-tetrahydro-3H-pyrido[2,3-d]pyrimidin-6-yl]ethyl]benzoyl]amino]pentanedioic acid]
- sensitivity of MLL3/4 ΔSET cells compared with WT mESCs (percentage of inhibition) (MLL3/4 ΔSET cells): indistinguishable sensitivity to LTX in comparison to WT mESCs
- sc tumor volume at day 18 post-tumor cell injection, DMSO vs LTX (unpaired t-test) (HT55 (MLL4 WT) xenograft; LTX 15 mg/kg daily for 7 days): not statistically significant
- tumor growth (HT55 (MLL4 WT) xenograft; LTX 15 mg/kg daily for 7 days vs DMSO): almost completely resistant to LTX
- sensitivity of Mll3/4 KO cells compared with WT cells (percentage of inhibition of viability) (Mll3/4 KO mESCs; LTX 0-2.5 μM, MTX 0-5, three Mll3/4 KO clones): elevated sensitivity to LTX in Mll3/4 KO cells
- rescue of cell growth and/or viability inhibition by hypoxanthine (Mll3/4 KO mESCs; LTX 0-2.5 μM + 50 hypoxanthine (HPX)): completely rescued by HPX
- tumor growth at lower dose ([1]; LTX 15 mg/kg daily for 7 days vs DMSO, tumor volume day 12 P<0.001, survival P<0.001): maintained the sensitivity to LTX at a lower dose
- apoptosis in tumors (TUNEL) [1, 2]: enhanced apoptosis
- cell proliferation in tumors (Ki-67) [1, 2]: significantly decreased
- subcutaneous tumor growth (tumor volume) ([1]; LTX 25 mg/kg intraperitoneally daily for 7 days vs DMSO, P<0.0001): significantly inhibited the subcutaneous (sc) tumor growth
- survival of recipient mice ([1]; LTX 25 mg/kg intraperitoneally daily for 7 days vs DMSO, log-rank P<0.0001): extend the survival of recipient mice
